The results in this text go back to paper PMC3904387 (ACS medicinal chemistry letters, 2013).

Series [1] deals with PR8 H1N1 infected MDCK cells. Format: cell-based.
Series [2] deals with Madin-Darby canine kidney (MDCK) cells.

Regarding `O=C(Cc1ccccc1Cl)c1ccc(O)c(O)c1O` [compound 14], the “antiviral activity (in words)” value in series [1] was “neither cytotoxic nor active against virally infected cells”. In series [2], the “cytotoxicity (in words)” value was “neither cytotoxic”.

In the case of `CC(=O)N1CCC2(CC1)CC(=O)c1ccc(O)c(O)c1O2` [compound 12], the “antiviral activity (in words)” value in series [1] is “lack cytotoxicity and antiviral activity”. Besides, in series [2], the “cytotoxicity (in words)” value is on record as “lack cytotoxicity”.

For the compound `Cc1ccccc1/C=N\NC(=O)c1ccc(O)c(O)c1` [compound 7], in series [1], the “antiviral activity (in words)” value is “lacking cytotoxicity and antiviral activity”. Moreover, the “cytotoxicity (in words)” value in series [2] is listed as “lacking cytotoxicity”.

Regarding `O=C1CC2(CCCCC2)Oc2c1ccc(O)c2O` [compound 11], the “antiviral activity (in words)” value in series [1] is “lack cytotoxicity and antiviral activity”. Besides, in series [2], the “cytotoxicity (in words)” value is recorded as “lack cytotoxicity”.

On to `COc1ccccc1N1CCN(/N=C/c2ccc(O)c(O)c2)CC1` [compound 8], for which, in series [2], the “cytotoxicity (in words)” value was “cytotoxic”.

Regarding `O=C(N/N=C\c1cccc(Cl)c1Cl)c1ccc(O)c(O)c1` [compound 6], the “cytotoxicity (in words)” value in series [2] was “cytotoxic”.

`C/C(=N/NC(=O)c1ccc(O)c(O)c1)c1ccc(C)cc1` [compound 9]: the “antiviral activity (in words)” value in series [1] is “lacks antiviral activity”. The “cytotoxicity (in words)” value in series [2] is “lacks antiviral activity and cytotoxicity”.
